These results are taken from publication PMC3951875 (Bioorganic & medicinal chemistry letters, 2014).

Series [1] addresses T1, αIIbβ3 receptor (Homo sapiens, UniProt P05106+P08514). In words: Platelet aggregation. The series is classed as cell-based.
The nature of series [2]: Biological stability in mouse plasma. The series is classed as in vitro ADME.
The target in series [3] is hERG channel (Homo sapiens, UniProt Q12809). Kind of series: hERG channel inhibition. The series is classed as biochemical. The conditions noted are these: @ 25 μM; < 5% at all tested concentrations (0.008-25.0 μM). A general note: hERG is a cardiac potassium channel; its block is linked to QT prolongation.
Sequence of hERG channel (Q12809 whole entry): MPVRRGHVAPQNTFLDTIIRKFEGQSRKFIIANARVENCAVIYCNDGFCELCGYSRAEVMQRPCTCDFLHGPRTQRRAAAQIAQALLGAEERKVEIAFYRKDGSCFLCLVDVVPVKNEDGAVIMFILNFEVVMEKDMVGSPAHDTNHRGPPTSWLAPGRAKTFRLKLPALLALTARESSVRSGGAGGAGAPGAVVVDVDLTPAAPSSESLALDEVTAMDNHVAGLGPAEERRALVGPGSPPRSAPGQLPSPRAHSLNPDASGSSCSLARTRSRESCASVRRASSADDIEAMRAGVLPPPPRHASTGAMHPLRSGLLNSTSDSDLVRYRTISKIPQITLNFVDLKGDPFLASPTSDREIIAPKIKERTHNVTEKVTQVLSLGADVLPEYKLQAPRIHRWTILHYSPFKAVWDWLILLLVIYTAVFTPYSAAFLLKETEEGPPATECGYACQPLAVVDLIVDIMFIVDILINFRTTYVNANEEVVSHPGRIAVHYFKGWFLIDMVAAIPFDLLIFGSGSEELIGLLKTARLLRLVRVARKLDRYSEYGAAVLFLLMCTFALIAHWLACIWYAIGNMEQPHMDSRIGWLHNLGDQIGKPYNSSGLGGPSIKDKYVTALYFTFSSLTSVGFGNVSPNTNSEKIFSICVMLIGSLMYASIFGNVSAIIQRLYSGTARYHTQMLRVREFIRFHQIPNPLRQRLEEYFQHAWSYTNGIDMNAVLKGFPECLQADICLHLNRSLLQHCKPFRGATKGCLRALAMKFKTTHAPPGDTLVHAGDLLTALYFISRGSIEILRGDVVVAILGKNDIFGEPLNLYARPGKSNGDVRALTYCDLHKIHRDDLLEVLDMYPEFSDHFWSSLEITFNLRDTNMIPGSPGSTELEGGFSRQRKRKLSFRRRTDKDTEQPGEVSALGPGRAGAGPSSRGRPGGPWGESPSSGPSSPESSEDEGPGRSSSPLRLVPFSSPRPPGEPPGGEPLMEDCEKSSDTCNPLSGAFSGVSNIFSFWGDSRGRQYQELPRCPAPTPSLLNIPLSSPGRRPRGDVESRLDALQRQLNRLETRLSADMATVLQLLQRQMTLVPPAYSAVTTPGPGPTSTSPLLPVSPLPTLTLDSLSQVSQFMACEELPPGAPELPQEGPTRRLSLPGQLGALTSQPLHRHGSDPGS
Series [4] can be described thus: Microsomal stability, mouse. The series is classed as in vitro ADME. The following applies: mouse microsomes.
Series [5] can be described thus: Microsomal stability, rat. The conditions noted are these: rat microsomes. The series is classed as in vitro ADME.
Series [6] is described as follows: Microsomal stability, human. The series is classed as in vitro ADME. The conditions noted are these: human microsomes.
Series [7] is described as follows: Exposure. The series is classed as in vivo. The conditions noted are these: for CO: IV, dose 0.03 mg, av. weight 27 g; for AUC / Cmax / Tmax / half-life: in vivo, 0.03 mg.
Series [8] deals with Caco2. In words: PAMPA and Caco2 permeability analyses. The series is classed as in vitro ADME. The conditions noted are these: data not shown.
Series [9] in a line: Long-term solubilization. The series is classed as physicochemical.
The subject of series [10] is phospholipidosis. In words: Drug-induced phospholipidosis. Format: cell-based. The following applies: data not shown.
The target in series [11] is αVβ3 receptor (Homo sapiens, UniProt P05106+P06756). Kind of series: Activity versus the αVβ3 receptor. The following applies: manuscript in preparation.
Sequence of αVβ3 receptor (P06756 31-889 limits assumed): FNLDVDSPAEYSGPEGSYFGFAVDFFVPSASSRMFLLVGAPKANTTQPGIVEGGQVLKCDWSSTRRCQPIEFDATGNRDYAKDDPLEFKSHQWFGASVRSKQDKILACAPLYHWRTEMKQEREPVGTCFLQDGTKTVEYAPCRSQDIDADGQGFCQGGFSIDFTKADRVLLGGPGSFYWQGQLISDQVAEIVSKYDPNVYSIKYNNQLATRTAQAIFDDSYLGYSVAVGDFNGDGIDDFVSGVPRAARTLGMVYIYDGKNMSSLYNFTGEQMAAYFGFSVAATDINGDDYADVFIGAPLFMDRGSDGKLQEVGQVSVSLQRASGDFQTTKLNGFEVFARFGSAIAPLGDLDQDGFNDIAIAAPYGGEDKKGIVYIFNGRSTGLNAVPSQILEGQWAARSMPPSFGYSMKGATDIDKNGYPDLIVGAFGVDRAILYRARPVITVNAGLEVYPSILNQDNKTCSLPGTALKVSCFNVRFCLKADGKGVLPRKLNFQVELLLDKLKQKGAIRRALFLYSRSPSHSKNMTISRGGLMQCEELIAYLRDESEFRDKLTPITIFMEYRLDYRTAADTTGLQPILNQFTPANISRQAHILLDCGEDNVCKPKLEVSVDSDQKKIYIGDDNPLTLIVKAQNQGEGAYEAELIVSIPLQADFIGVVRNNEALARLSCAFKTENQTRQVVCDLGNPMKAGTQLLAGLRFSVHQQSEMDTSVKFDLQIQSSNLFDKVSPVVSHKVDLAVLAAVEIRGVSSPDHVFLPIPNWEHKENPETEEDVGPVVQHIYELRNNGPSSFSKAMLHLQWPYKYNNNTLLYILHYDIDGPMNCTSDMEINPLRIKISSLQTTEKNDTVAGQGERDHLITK
Sequence of αVβ3 receptor (P06756 891-1048 partner limits assumed): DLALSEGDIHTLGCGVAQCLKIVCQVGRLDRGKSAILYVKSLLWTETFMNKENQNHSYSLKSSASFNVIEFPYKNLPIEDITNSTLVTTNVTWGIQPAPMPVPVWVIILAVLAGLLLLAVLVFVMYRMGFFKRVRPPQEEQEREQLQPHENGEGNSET
Sequence of αVβ3 receptor (P05106 27-788): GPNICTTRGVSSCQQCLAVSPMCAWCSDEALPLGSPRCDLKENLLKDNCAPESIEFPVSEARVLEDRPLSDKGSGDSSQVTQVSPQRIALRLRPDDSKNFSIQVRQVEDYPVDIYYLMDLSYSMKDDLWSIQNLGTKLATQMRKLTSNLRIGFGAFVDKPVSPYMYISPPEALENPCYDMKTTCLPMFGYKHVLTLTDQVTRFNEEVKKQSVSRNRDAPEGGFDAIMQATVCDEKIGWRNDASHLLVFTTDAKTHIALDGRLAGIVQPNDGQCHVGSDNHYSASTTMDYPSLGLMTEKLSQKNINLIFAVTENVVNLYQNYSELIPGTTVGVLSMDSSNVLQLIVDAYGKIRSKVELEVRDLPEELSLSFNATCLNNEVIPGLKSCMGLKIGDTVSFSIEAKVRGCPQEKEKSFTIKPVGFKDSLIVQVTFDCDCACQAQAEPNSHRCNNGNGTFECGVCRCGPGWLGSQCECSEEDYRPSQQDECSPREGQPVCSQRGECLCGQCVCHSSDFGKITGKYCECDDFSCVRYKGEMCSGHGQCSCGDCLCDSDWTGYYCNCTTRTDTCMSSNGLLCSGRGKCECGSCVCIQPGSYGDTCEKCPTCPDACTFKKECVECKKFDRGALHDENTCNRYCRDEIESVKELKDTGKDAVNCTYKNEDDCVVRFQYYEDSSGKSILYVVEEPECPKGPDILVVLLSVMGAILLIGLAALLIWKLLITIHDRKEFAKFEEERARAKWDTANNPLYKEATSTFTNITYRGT
Series [12] deals with T1, αIIbβ3 receptor. In words: Priming of the receptor for fibrinogen binding. The conditions noted are these: manuscript in preparation.
The target of series [13] is T1, αIIbβ3 receptor. Kind of series: β3 conformation by binding of a conformation-specific monoclonal antibody.
Series [14] is described as follows: Chemical stability as a solution. The following applies: both DMSO-based and aqueous. The series is classed as physicochemical.

T1 sequence (P08514 32-887 limits assumed): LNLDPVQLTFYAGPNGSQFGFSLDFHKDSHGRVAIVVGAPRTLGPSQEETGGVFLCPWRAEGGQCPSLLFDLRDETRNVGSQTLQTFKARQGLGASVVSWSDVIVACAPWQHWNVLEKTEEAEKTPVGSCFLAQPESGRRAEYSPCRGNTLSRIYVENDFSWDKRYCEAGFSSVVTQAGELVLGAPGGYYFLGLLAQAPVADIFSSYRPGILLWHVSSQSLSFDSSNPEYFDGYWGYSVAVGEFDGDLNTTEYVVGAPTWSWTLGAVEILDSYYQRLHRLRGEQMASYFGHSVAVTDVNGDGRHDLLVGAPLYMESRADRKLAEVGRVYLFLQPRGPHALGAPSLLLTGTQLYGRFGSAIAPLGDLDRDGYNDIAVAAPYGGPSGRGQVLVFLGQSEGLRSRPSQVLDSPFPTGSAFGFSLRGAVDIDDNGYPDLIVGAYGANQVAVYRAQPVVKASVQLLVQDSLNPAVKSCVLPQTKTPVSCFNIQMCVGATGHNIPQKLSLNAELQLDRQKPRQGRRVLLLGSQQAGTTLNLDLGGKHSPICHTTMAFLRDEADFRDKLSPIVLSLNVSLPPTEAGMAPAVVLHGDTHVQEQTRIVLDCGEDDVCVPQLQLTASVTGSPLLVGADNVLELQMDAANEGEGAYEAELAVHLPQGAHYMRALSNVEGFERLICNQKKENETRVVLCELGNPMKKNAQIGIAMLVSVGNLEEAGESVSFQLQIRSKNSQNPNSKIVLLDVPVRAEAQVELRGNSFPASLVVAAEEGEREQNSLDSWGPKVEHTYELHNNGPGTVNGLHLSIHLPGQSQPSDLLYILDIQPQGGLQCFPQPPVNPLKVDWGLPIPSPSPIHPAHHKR
T1 sequence (P08514 891-1039 partner limits assumed): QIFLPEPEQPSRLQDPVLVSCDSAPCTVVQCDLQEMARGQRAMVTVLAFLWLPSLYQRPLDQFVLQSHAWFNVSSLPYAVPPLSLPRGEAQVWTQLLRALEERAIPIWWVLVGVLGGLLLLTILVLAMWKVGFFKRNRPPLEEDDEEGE
T1 sequence (P05106 27-788): as the sequence (P05106 27-788) above

On to `CCc1nn2c(=O)cc(N3CCNCC3)nc2s1` [compound 1], for which the IC50 in series [1] was in the range of 4 to 10 µM.
With `NCC(=O)Nc1cccc(-c2nn3c(=O)cc(N4CCNCC4)nc3s2)c1` [compound 2], the “Biological Stability” value was 97.5 (15 min.) in [2] (15 min.), 93.3 (60 min.) in series [2] (60 min.) and 84.5 (120 min.) in [2] (120 min.). Besides, the “hERG Inhibition” value in series [3] is recorded as less than 5% @ 25 μM. Also, the t1/2 entry in series [4] is given as “> det. limit (mouse)”; in [5] it was “> det. limit (rat)”; in series [6], “> det. limit (human)”. The molecule also came in with a CO in [7] of 1.354 µg/mL. For the same molecule, the AUC in series [7] (ip) was 45 ng·h/mL; in series [7] (iv), 123 ng·h/mL. In [7] (ip), the concentration peaked (Cmax) at 222 ng/mL. For the same molecule, the Tmax in [7] (ip) is 4.8 min. In addition, the half-life in series [7] (iv) is 4.2 min. For the same molecule, the “PAMPA and Caco2 permeability analyses” value in [8] is “unlikely that either agent possesses high oral bioavailability”.
Take `NCC(=O)Nc1cncc(-c2nn3c(=O)cc(N4CCNCC4)nc3s2)c1` [compound 13]: the “Biological Stability” value in series [2] (15 min.) is 100 (15 min.). In addition, the “Biological Stability” value in series [2] (60 min.) is given as 99.5 (60 min.). In addition, the “Biological Stability” value in series [2] (120 min.) was 91.7 (120 min.). The “hERG Inhibition” value in series [3] was less than 5% @ 25 μM. Further, in series [7], the CO turned out to be 1.145 µg/mL. Further, in series [7] (ip), the AUC came out at 87 ng·h/mL, the Cmax was determined as 405 ng/mL and the Tmax came out at 4.8 min. Moreover, in series [7] (iv), the area under the curve (AUC) worked out at 137 ng·h/mL and the half-life is 4.2 min. In series [8], the “PAMPA and Caco2 permeability analyses” value is given as “unlikely that either agent possesses high oral bioavailability”. In addition, the solubility in [9] is not below 60 mg/mL. For the same molecule, the induction of phospholipidosis result in series [10] is listed as “No appreciable induction of phospholipidosis”. Further, in series [11], the “activity versus the αVβ3 receptor” value was “does not possess any activity”. Further, the “priming of the receptor for fibrinogen binding” value in [12] is “neither primes the receptor for fibrinogen binding”. Further, the “change of β3 conformation” value in series [13] is given as “nor changes the β3 conformation”.
As to `NCC(=O)Nc1cc(-c2nn3c(=O)cc(N4CCNCC4)nc3s2)ccn1` [compound 14], in series [14], the “chemical stability as a solution” value is on record as “poor chemical stability”.

The IC50 is the concentration that gives 50% inhibition. Higher therefore signals a need for much substance. What is called AUC is the area under the concentration-time curve, a measure of exposure. A higher AUC goes with more exposure. As a reminder, the Cmax is the peak of the concentration-time curve. Broadly, the Tmax is the time from dosing to the highest level. As usually defined, the half-life is the time in which the quantity being followed falls by half. High values mean slow decline, low ones rapid decline. The term solubility denotes the dissolved amount per volume that the medium holds. Lower therefore signals a poorly soluble substance.
